Experimental data: US10894782B2, “Modulators of P97 AAA ATPase activity” (University of Pittsburgh—Of the Commonwealth System of …, priority 2016, dated 2021)
pIC50: −log10 of the molar value.

Biological target: P97 (Homo sapiens (Human), UniProt P55072)
Assay: P97 Biomolgreen ATPase assay, 200 μM ATP
Assay type: biochemical
Settings: not given

P97, sequence (P55072 whole entry): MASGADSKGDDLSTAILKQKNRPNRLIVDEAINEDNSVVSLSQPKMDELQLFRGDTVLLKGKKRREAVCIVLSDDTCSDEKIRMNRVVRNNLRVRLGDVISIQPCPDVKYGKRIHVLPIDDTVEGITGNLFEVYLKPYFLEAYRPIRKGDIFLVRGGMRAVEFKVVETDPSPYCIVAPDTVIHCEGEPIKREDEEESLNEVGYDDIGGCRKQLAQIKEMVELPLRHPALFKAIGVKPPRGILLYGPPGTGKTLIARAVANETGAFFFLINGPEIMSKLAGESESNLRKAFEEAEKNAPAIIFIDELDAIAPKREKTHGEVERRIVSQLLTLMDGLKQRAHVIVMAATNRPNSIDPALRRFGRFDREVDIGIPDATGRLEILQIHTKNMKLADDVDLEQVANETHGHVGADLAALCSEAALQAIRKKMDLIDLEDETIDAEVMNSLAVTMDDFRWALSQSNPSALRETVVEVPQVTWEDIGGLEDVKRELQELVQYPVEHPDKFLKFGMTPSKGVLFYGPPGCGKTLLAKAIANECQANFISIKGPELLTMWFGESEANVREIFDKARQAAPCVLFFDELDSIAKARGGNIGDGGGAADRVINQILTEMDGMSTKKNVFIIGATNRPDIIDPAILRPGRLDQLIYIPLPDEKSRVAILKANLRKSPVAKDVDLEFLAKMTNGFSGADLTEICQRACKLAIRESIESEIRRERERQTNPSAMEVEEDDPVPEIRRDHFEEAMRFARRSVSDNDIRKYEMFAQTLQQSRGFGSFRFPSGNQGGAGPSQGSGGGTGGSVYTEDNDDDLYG

Compound	P97 Biomolgreen; 200 μM ATP; IC50 (μM)
CCC(=O)NCC#Cc1ccc(OCc2nnc(SCC3CO3)n2-c2cccnc2)cc1C (stereo not shown) [Compound 129]	not active

Same assay, conditions: P97 Biomolgreen, IC50 (μM)

Compound	IC50
[2H]C1([2H])C([2H])([2H])C([2H])([2H])C([2H])(Sc2nnc(COc3ccc(C#CC(C)OC)c(C)c3)n2-c2cccnc2)C1([2H])[2H] (stereo not shown) [Compound 27]	0.16 µM
[2H]C1([2H])C([2H])([2H])C([2H])([2H])C([2H])(Sc2nnc(COc3ccc(C#CCOC(=O)NCCc4ncnn4C)c(C)c3)n2-c2cccnc2)C1([2H])[2H] [Compound 31]	0.052 µM
[2H]C1([2H])C([2H])([2H])C([2H])([2H])C([2H])(Sc2nnc(COc3ccc(C#CCOC(=O)OCC#Cc4ccc(OCc5nnc(SC6([2H])C([2H])([2H])C([2H])([2H])C([2H])([2H])C6([2H])[2H])n5-c5cccnc5)cc4C)c(C)c3)n2-c2cccnc2)C1([2H])[2H] [Compound 133]	0.91 µM
[2H]C1([2H])C([2H])([2H])C([2H])([2H])C([2H])(Sc2nnc(COc3ccc(C#CCO)c(C)c3)n2-c2cccnc2)C1([2H])[2H] [Compound 93]	0.048 µM
[2H]C1([2H])C([2H])([2H])C([2H])([2H])C([2H])(Sc2nnc(COc3ccc(C#CCNC(=O)OC(C)(C)C)c(C)c3)n2-c2cccnc2)C1([2H])[2H] [Compound 46]	0.19 µM
[2H]C1([2H])C([2H])([2H])C([2H])([2H])C([2H])(Sc2nnc(COc3ccc(C#CCOC(=O)NCCN4CCN(C(C)C)CC4)c(C)c3)n2-c2cccnc2)C1([2H])[2H] [Compound 21]	0.034 µM
[2H]C1([2H])C([2H])([2H])C([2H])([2H])C([2H])(Sc2nnc(COc3ccc(C#CCOC(=O)N4CCC4)c(C)c3)n2-c2cccnc2)C1([2H])[2H] [Compound 37]	0.07 µM
[2H]C1([2H])C([2H])([2H])C([2H])([2H])C([2H])(Sc2nnc(COc3ccc(C#CCOC(=O)NCc4cc(C)on4)c(C)c3)n2-c2cccnc2)C1([2H])[2H] [Compound 35]	0.064 µM
[2H]C1([2H])C([2H])([2H])C([2H])([2H])C([2H])(Sc2nnc(COc3ccc(C#CCNCC4(N5CCN(C(C)C)CC5)CCC4)c(C)c3)n2-c2cccnc2)C1([2H])[2H] [Compound 67]	0.2 µM
[2H]C1([2H])C([2H])([2H])C([2H])([2H])C([2H])(Sc2nnc(COc3cc(F)c(C#CCOC(=O)NC4CCN(C)CC4)cc3F)n2-c2cccnc2)C1([2H])[2H] [Compound 124]	0.01 µM
[2H]C1([2H])C([2H])([2H])C([2H])([2H])C([2H])(Sc2nnc(COc3ccc(C#CC(C)N4CCOCC4)c(C)c3)n2-c2cccnc2)C1([2H])[2H] (stereo not shown) [Compound 3]	0.17 µM
[2H]C1([2H])C([2H])([2H])C([2H])([2H])C([2H])(Sc2nnc(COc3ccc(C#CC(C)O)c(C)c3)n2-c2cccnc2)C1([2H])[2H] (stereo not shown) [Compound 26]	0.068 µM
[2H]C1([2H])C([2H])([2H])C([2H])([2H])C([2H])(Sc2nnc(COc3ccc(C#CCNCCN4CCN(C)CC4)c(C)c3)n2-c2cccnc2)C1([2H])[2H] [Compound 68]	0.17 µM
[2H]C1([2H])C([2H])([2H])C([2H])([2H])C([2H])(Sc2nnc(COc3ccc(C#CCOC(=O)NC4CCN(C)CC4)c(C)c3)n2-c2cccnc2)C1([2H])[2H] [Compound 125]	0.016 µM
[2H]C1([2H])C([2H])([2H])C([2H])([2H])C([2H])(Sc2nnc(COc3ccc(C#CCOC)c(C)c3)n2-c2cccnc2)C1([2H])[2H] [Compound 36]	0.069 µM

Same assay, conditions: read-out: P97 Biomolgreen, IC50

Compound	pIC50
COC(=O)NCC#Cc1ccc(OCc2nnc(SC3CCCC3)n2-c2cccnc2)cc1C [Compound 12]	7.54
Cc1cc(OCc2nnc(SC3CCCC3)n2-c2cccnc2)ccc1C#CCNC(=O)OC(C)(C)C [Compound 43]	7.32
Cc1cc(OCc2nnc(SC3C=CCCC3)n2-c2cccnc2)ccc1C#CCNC(=O)C1CC1 (stereo not shown) [Compound 103]	7.52
C=CC(=O)NCC#Cc1ccc(OCc2nnc(SC3C=CCCC3)n2-c2cccnc2)cc1C (stereo not shown) [Compound 92]	7.59
C#Cc1ccc(OCc2nnc(SC3CC3)n2-c2cccnc2)cc1C [Compound 48]	6.17
Cc1cc(OCc2nnc(SC3CCCC3)n2-c2cccnc2)ccc1C#CC#N [Compound 5]	7.68
Cc1cc(OCc2nnc(SC3C=CCCC3)n2-c2cccnc2)ccc1C#CCOC(=O)NCC1(N2CCN(C(C)C)CC2)CCC1 (stereo not shown) [Compound 30]	7.96
Cc1cc(OCc2nnc(SC3CCCC3)n2-c2cccnc2)ccc1C#CCCc1ccccc1 [Compound 9]	7.00
Cc1cc(OCc2nnc(SC3C=CCCC3)n2-c2cccnc2)ccc1C#CCN (stereo not shown) [Compound 4]	7.36
Cc1cc(OCc2nnc(SC3C=CCCC3)n2-c2cccnc2)ccc1C#CCNC1CCCCC1 (stereo not shown) [Compound 17]	7.40
Cc1cc(OCc2nnc(SC3C=CCCC3)n2-c2cccnc2)ccc1C#CCOC(=O)NCCN1CCN(C)CC1 (stereo not shown) [Compound 59]	7.60
Cc1cc(OCc2nnc(SCC3CC3)n2-c2cccnc2)ccc1C#CCO [Compound 128]	6.89
Cc1cc(OCc2nnc(SC3C=CCCC3)n2-c2cccnc2)ccc1C#CCOC(=O)NCCC(=O)N1CCN(C)CC1 (stereo not shown) [Compound 61]	7.54
Cc1cc(OCc2nnc(SC3C=CCCC3)n2-c2cccnc2)ccc1C#CCNC(=O)NCCN1CCN(C(C)C)CC1 (stereo not shown) [Compound 73]	7.28
Cc1cc(OCc2nnc(SC3C=CCCC3)n2-c2cccnc2)ccc1C#CCN(C)S(C)(=O)=O (stereo not shown) [Compound 25]	7.18
OCC#Cc1ccc(OCc2nnc(SC3C=CCCC3)n2-c2cccnc2)cc1F (stereo not shown) [Compound 97]	7.59
Cc1cc(OCc2nnc(SC3C=CCCC3)n2-c2cccnc2)ccc1C#CCOC(=O)NCCN1CCN(C(C)C)CC1 (stereo not shown) [Compound 29]	7.72
Cc1cc(OCc2nnc(SC3CCCC=C3F)n2-c2cccnc2)ccc1C#CCOC(=O)NCCN1CCN(C)CC1 (stereo not shown) [Compound 80]	6.64
C#Cc1ccc(OCc2nnc(SC3C=CCCC3)n2-c2cccnc2)cc1C (stereo not shown) [Compound 127]	7.42
Cc1cc(OCc2nnc(SC3C=CCCC3)n2-c2cccnc2)ccc1C#CC1(O)CN(C(=O)OC(C)(C)C)C1 (stereo not shown) [Compound 72]	6.74
N#Cc1cc(OCc2nnc(SC3C=CCCC3)n2-c2cccnc2)ccc1C#CCO (stereo not shown) [Compound 115]	7.00
Cc1cc(OCc2nnc(SC3C=CCCC3)n2-c2cccnc2)ccc1C#CCN1C(=O)c2ccccc2C1=O (stereo not shown) [Compound 47]	6.54
C=CCSc1nnc(COc2ccc(C#CCNC(=O)CC)c(C)c2)n1-c1cccnc1 [Compound 131]	6.48
Cc1cc(OCc2nnc(SC3CCCC3)n2-c2cccnc2)ccc1C#CCNS(C)(=O)=O [Compound 13]	7.30
CN1CCN(CCNC(=O)OCC#Cc2ccc(OCc3nnc(SC4C=CCCC4)n3-c3cccnc3)cc2F)CC1 (stereo not shown) [Compound 107]	7.89
Cc1cc(OCc2nnc(SC3C=CCCC3)n2-c2cccnc2)ccc1C#CCNS(C)(=O)=O (stereo not shown) [Compound 14]	7.46
CC(=O)NCC#Cc1ccc(OCc2nnc(SC3C=CCCC3)n2-c2cccnc2)cc1C (stereo not shown) [Compound 83]	7.34
Cc1cc(OCc2nnc(SC3CCCC3)n2-c2cccnc2)ccc1C#CCNC(C)C [Compound 11]	8.15
Cc1cc(OCc2nnc(SC3C=CCCC3)n2-c2cccnc2)ccc1C#CC(C)(C)O (stereo not shown) [Compound 28]	7.02
Cc1cc(OCc2nnc(SC3C=CCCC3)n2-c2cccnc2)ccc1C#CCOC(=O)N1CCN(C)CC1 (stereo not shown) [Compound 76]	7.52
